Experimental data reported in the OligoGym collection.
HELM strings list units from the 5' end as sugar, base in round brackets, then linkage (d deoxyribose, r ribose, m 2'-O-methyl, p phosphodiester). Strings are as the collection lists them, not checked against the first reports. ss, as = sense and antisense strand; [lna] = locked nucleic acid (LNA); [una] = unlocked nucleic acid; [fl2r] = 2'-fluoro

Conditions: siRNA
Further: test system not given here.

Substance	target mRNA knockdown [%]
RNA1{r(C)p.r(G)p.r(A)p.r(C)p.r(G)p.r(A)p.r(U)p.r(U)p.r(C)p.r(U)p.r(U)p.r(C)p.[fl2r](U)p.r(A)p.r(C)p.r(U)p.r(C)p.r(A)p.r(A)p.r(T)p.r(T)}|RNA2{r(U)p.r(U)p.r(G)p.r(A)p.r(G)p.[fl2r](U)p.r(A)p.r(G)p.r(A)p.r(A)p.r(G)p.r(A)p.r(A)p.r(U)p.r(C)p.r(G)p.r(U)p.r(C)p.r(G)p.r(T)p.r(T)}$$$RNA1{StrandType:ss}|RNA2{StrandType:as}$	67
RNA1{r(U)p.m(U)p.r(A)p.r(A)p.r(G)p.r(G)p.r(A)p.r(G)p.r(A)p.r(A)p.r(G)p.r(C)p.m(U)p.m(G)p.r(A)p.r(C)p.r(G)p.r(G)p.r(C)p.r(T)p.r(T)}|RNA2{r(G)p.r(C)p.r(C)p.r(G)p.r(U)p.m(C)p.r(A)p.r(G)p.r(C)p.r(U)p.r(U)p.r(C)p.r(U)p.r(C)p.r(C)p.r(U)p.m(U)p.r(A)p.r(A)p.r(T)p.r(T)}$$$RNA1{StrandType:ss}|RNA2{StrandType:as}$	82
RNA1{r(A)p.r(G)p.r(A)p.r(A)p.r(A)p.r(A)p.r(G)p.r(C)p.r(A)p.r(G)p.r(C)p.r(G)p.r(A)p.m(U)p.r(A)p.r(C)p.r(G)p.r(C)p.r(U)p.r(T)p.r(T)}|RNA2{r(A)p.r(G)p.r(C)p.r(G)p.r(U)p.r(A)p.r(U)p.r(C)p.r(G)p.r(C)p.r(U)p.r(G)p.r(C)p.r(U)p.r(U)p.r(U)p.r(U)p.r(C)p.r(U)p.r(T)p.r(T)}$$$RNA1{StrandType:ss}|RNA2{StrandType:as}$	69
RNA1{m(A)p.m(A)p.m(G)p.r(G)p.r(A)p.r(G)p.r(A)p.r(U)p.r(C)p.r(A)p.r(A)p.r(C)p.r(A)p.r(U)p.r(U)p.r(U)p.r(U)p.r(C)p.r(A)p.r(T)p.r(T)}|RNA2{m(U)p.m(G)p.m(A)p.r(A)p.r(A)p.r(A)p.r(U)p.r(G)p.r(U)p.r(U)p.r(G)p.r(A)p.r(U)p.r(C)p.r(U)p.r(C)p.r(C)p.r(U)p.r(U)p.r(T)p.r(T)}$$$RNA1{StrandType:ss}|RNA2{StrandType:as}$	60
RNA1{r(A)p.r(U)p.m(C)p.r(A)p.m(C)p.r(A)p.r(A)p.r(A)p.r(C)p.r(C)p.r(C)p.r(C)p.m(U)p.r(A)p.r(G)p.r(A)p.r(G)p.r(G)p.r(G)p.r(T)p.r(T)}|RNA2{r(C)p.r(C)p.r(C)p.r(U)p.r(C)p.m(U)p.r(A)p.r(G)p.r(G)p.r(G)p.r(G)p.r(U)p.r(U)p.m(U)p.r(G)p.m(U)p.r(G)p.r(A)p.r(U)p.r(T)p.r(T)}$$$RNA1{StrandType:ss}|RNA2{StrandType:as}$	75
RNA1{r(G)p.r(G)p.r(A)p.r(C)p.r(A)p.r(U)p.r(U)p.r(C)p.r(A)p.r(G)p.r(A)p.r(A)p.r(C)p.r(A)p.r(A)p.r(G)p.r(A)p.r(A)p.r(A)p.[una](U)p.[una](U)}|RNA2{r(U)p.r(U)p.r(U)p.r(C)p.r(U)p.[una](U)p.r(G)p.r(U)p.r(U)p.r(C)p.r(U)p.r(G)p.r(A)p.r(A)p.r(U)p.r(G)p.r(U)p.r(C)p.r(C)p.[una](U)p.[una](U)}$$$RNA1{StrandType:ss}|RNA2{StrandType:as}$	57
RNA1{r(A)p.r(G)p.r(G)p.r(A)p.r(C)p.r(G)p.r(G)p.m(U)p.r(A)p.r(C)p.r(U)p.r(U)p.m(U)p.r(C)p.r(G)p.m(A)p.r(A)p.r(A)p.r(G)p.r(T)p.r(T)}|RNA2{r(C)p.r(U)p.r(U)p.r(U)p.r(C)p.r(G)p.r(A)p.r(A)p.r(A)p.r(G)p.m(U)p.r(A)p.r(C)p.r(C)p.r(G)p.r(U)p.r(C)p.r(C)p.r(U)p.r(T)p.r(T)}$$$RNA1{StrandType:ss}|RNA2{StrandType:as}$	44
RNA1{r(A)p.m(U)p.r(A)p.r(C)p.r(U)p.m(U)p.r(G)p.r(G)p.r(C)p.m(G)p.r(G)p.r(G)p.r(C)p.r(U)p.r(C)p.r(U)p.r(U)p.r(U)p.r(C)p.r(T)p.r(T)}|RNA2{r(G)p.r(A)p.r(A)p.r(A)p.r(G)p.r(A)p.r(G)p.r(C)p.r(C)p.r(C)p.r(G)p.r(C)p.m(C)p.r(A)p.r(A)p.r(G)p.m(U)p.r(A)p.r(U)p.r(T)p.r(T)}$$$RNA1{StrandType:ss}|RNA2{StrandType:as}$	42
RNA1{r(C)p.r(G)p.r(A)p.r(A)p.r(A)p.r(G)p.r(U)p.r(G)p.r(U)p.r(A)p.r(U)p.r(C)p.r(C)p.r(G)p.r(A)p.r(A)p.r(G)p.r(A)p.r(C)p.r(T)p.r(T)}|RNA2{r(G)p.r(U)p.r(C)p.r(U)p.r(U)p.r(C)p.r(G)p.r(G)p.r(A)p.[fl2r](U)p.r(A)p.r(C)p.r(A)p.r(C)p.r(U)p.r(U)p.r(U)p.r(C)p.r(G)p.r(T)p.r(T)}$$$RNA1{StrandType:ss}|RNA2{StrandType:as}$	69
RNA1{r(G)p.r(G)p.r(C)p.r(C)p.r(U)p.r(U)p.r(U)p.r(C)p.r(A)p.r(C)p.r(U)p.r(A)p.r(C)p.r(U)p.r(C)p.r(C)p.r(U)p.r(A)p.r(C)p.d(T)p.d(T)}|RNA2{r(G)p.r(U)p.r(A)p.r(G)p.r(G)p.r(A)p.r(G)p.r(U)p.r(A)p.r(G)p.r(U)p.r(G)p.r(A)p.r(A)p.r(A)p.r(G)p.r(G)p.r(C)p.r(C)p.d(T)p.d(T)}$$$RNA1{StrandType:ss}|RNA2{StrandType:as}$	36
RNA1{r(C)p.r(U)p.r(U)p.r(A)p.r(C)p.r(G)p.r(C)p.r(U)p.r(G)p.r(A)p.r(G)p.r(U)p.r(A)p.r(C)p.r(U)p.r(U)p.r(C)p.r(G)p.r(A)p.r(T)p.r(T)}|RNA2{r(T)p.r(C)p.r(G)p.r(A)p.r(A)p.r(G)p.r(U)p.r(A)p.r(C)p.r(U)p.r(C)p.r(A)p.r(G)p.r(C)p.r(G)p.[lna](T)p.r(A)p.r(A)p.r(G)p.[lna](T)p.[lna](T)}$$$RNA1{StrandType:ss}|RNA2{StrandType:as}$	83
RNA1{m(A)p.r(G)p.r(C)p.r(U)p.r(C)p.r(U)p.r(U)p.r(U)p.r(G)p.r(U)p.r(C)p.m(A)p.r(C)p.r(C)p.r(U)p.r(C)p.r(U)p.r(C)p.r(U)p.r(T)p.r(T)}|RNA2{m(A)p.r(G)p.m(A)p.r(G)p.m(A)p.r(G)p.m(G)p.r(U)p.m(G)p.r(A)p.m(C)p.r(A)p.m(A)p.r(A)p.m(G)p.r(A)p.m(G)p.r(C)p.m(U)p.r(T)p.r(T)}$$$RNA1{StrandType:ss}|RNA2{StrandType:as}$	19
RNA1{r(A)p.r(A)p.r(C)p.r(U)p.r(U)p.r(C)p.r(U)p.r(G)p.r(G)p.r(G)p.r(A)p.r(G)p.r(C)p.r(C)p.r(U)p.r(C)p.m(C)p.r(A)p.r(A)p.r(T)p.r(T)}|RNA2{r(U)p.r(U)p.r(G)p.r(G)p.r(A)p.r(G)p.r(G)p.r(C)p.r(U)p.r(C)p.r(C)p.m(C)p.r(A)p.r(G)p.r(A)p.r(A)p.r(G)p.r(U)p.r(U)p.r(T)p.r(T)}$$$RNA1{StrandType:ss}|RNA2{StrandType:as}$	73
RNA1{r(C)p.r(G)p.r(G)p.r(A)p.r(U)p.r(C)p.m(U)p.r(A)p.r(C)p.r(A)p.r(C)p.r(C)p.r(U)p.r(U)p.r(C)p.r(A)p.r(A)p.r(G)p.r(A)p.r(T)p.r(T)}|RNA2{r(U)p.r(C)p.r(U)p.r(U)p.r(G)p.r(A)p.r(A)p.r(G)p.r(G)p.r(U)p.r(G)p.m(U)p.r(A)p.r(G)p.r(A)p.r(U)p.r(C)p.r(C)p.r(G)p.r(T)p.r(T)}$$$RNA1{StrandType:ss}|RNA2{StrandType:as}$	69
